The results in this text go back to ChEMBL document CHEMBL2311509, “Synthesis and antiproliferative evaluation of 3-phenylquinolinylchalcone derivatives against non-small cell lung cancers and breast cancers” (Eur J Med Chem, 2013).

Holding throughout (type): functional, cell-based
Test [1] is described as follows: Antiproliferative activity against human H1299 cells after 72 hrs by XTT assay. The settings on record: NCI-H1299, 72 h. On the technique in general: Tetrazolium assays rely on reduction of a dye to a coloured formazan, in cell work by metabolically active cells.
For test [2], the system named is A549. Briefly: Antiproliferative activity against human A549 cells after 72 hrs by XTT assay. Particulars: A549, 72 h.
Test [3] relates to MCF7. Briefly: Antiproliferative activity against human MCF7 cells after 72 hrs by XTT assay. The settings on record: MCF7, 72 h.
Test [4] is described as follows: Antiproliferative activity against human H184B5F5/M10 cells after 72 hrs by XTT assay. Particulars: H184B5F5/M10, 72 h.
Test [5] relates to SK-BR-3. The test can be described thus: Antiproliferative activity against human SKBR3 cells after 72 hrs by XTT assay. Particulars: SK-BR-3, 72 h.
The nature of test [6]: Antiproliferative activity against human H460 cells after 72 hrs by XTT assay. Particulars: NCI-H460, 72 h.
Test [7] has as its system MDA-MB-231. The test can be described thus: Antiproliferative activity against human MDA-MB-231 cells after 72 hrs by XTT assay. Particulars: MDA-MB-231, 72 h.

Broadly, the IC50 is the point on the concentration scale where inhibition reaches its midpoint. Low values mean higher potency, high ones lower potency. With `COc1ccc(-c2cc3ccccc3nc2/C=C/C(=O)c2cccs2)cc1`, the IC50 in test [1] came out at 0.72 µM; in test [2], 0.92 µM; in test [3], 1.03 µM; in test [4], 7.03 µM; in test [5] it was 0.8 µM; in test [6], 5.44 µM. Also, the IC50 in test [7] is 0.41 µM.
With `COc1ccc(-c2cc3ccccc3nc2C=O)cc1`, the IC50 in test [1], in test [2], in test [3], in test [4], in test [5] and in test [6] was > 10 µM each time. The IC50 in test [7] is > 10 µM.
Regarding `COc1ccc(-c2cc3ccccc3nc2/C=C/C(=O)c2c[nH]c3ccccc23)cc1`, the IC50 in test [1] is > 10 µM; in test [2], > 10 µM; in test [3] it was > 10 µM; in test [4] it was > 10 µM; in test [5], 3.45 µM; in test [6], 8.01 µM. Besides, the IC50 in test [7] was > 10 µM.
Consider `COc1ccc(-c2cc3ccccc3nc2/C=C/C(=O)c2cc(OC)cc(OC)c2)cc1`, for which the IC50 in test [1] turned out to be 0.93 µM; in test [2] it was 9.52 µM; in test [3], 3.23 µM; in test [4], 6.66 µM; in test [5], 0.47 µM; in test [6] it was 7.52 µM. The compound also yielded an IC50 in test [7] of 0.92 µM.
For the compound `COc1ccc(-c2cc3ccccc3nc2/C=C/C(=O)c2ccc(F)cc2)cc1`, the IC50 in test [1] was 0.82 µM; in test [2], 8.32 µM; in test [3], 5.45 µM; in test [4] it was > 10 µM; in test [5], 0.81 µM; in test [6], 6.99 µM. For the same compound, in test [7], half-maximal inhibition (IC50) was put at 0.83 µM.
As to `COc1ccc(-c2cc3ccccc3nc2/C=C/C(=O)c2ccccn2)cc1`, the IC50 in test [1] is 0.66 µM; in test [2] it was 6.14 µM; in test [3], 0.81 µM; in test [4], 4.14 µM; in test [5], 0.37 µM; in test [6], 6.26 µM. This compound displayed a concentration for half-maximal inhibition (IC50) in test [7] of 0.74 µM.
As to `COc1ccc(-c2cc3ccccc3nc2/C=C/C(=O)c2ccccc2)cc1`, the IC50 came to 1.41 µM in test [1]; 7.41 µM in test [2]; 4.04 µM in test [3]; 8.56 µM in test [4]; 0.7 µM in test [5]; 6.67 µM in test [6]. Moreover, the IC50 in test [7] worked out at 0.86 µM.
On to `COc1ccc(-c2cc3ccccc3nc2/C=C/C(=O)c2ccco2)cc1`, for which the IC50 in test [1] turned out to be 0.73 µM; in test [2], 6.13 µM; in test [3], 0.71 µM; in test [4] it was 6.24 µM; in test [5] it was 0.64 µM; in test [6] it was 6.43 µM. The compound also came in with an IC50 in test [7] of 0.63 µM.
For `CC[C@@]1(O)C(=O)OCc2c1cc1n(c2=O)Cc2cc3c(CN(C)C)c(O)ccc3nc2-1` [TOPOTECAN], the IC50 is 6.02 µM in test [1]; 5.97 µM in test [3]; > 10 µM in test [4]; 8.91 µM in test [5]; 7.29 µM in test [6]; < 0.1 µM in test [7].
Turning to `COc1ccc(C(=O)/C=C/c2nc3ccccc3cc2-c2ccc(OC)cc2)cc1`, the IC50 is 6.42 µM in test [1]; 8.5 µM in test [2]; 7.38 µM in test [3]; > 10 µM in test [4]; 9.28 µM in test [5]; > 10 µM in test [6]. Also, inhibition in test [7] was half-maximal at 7.54 µM (IC50).
With `COc1ccc(-c2cc3ccccc3nc2/C=C/C(=O)c2c(OC)cccc2OC)cc1`, the IC50 in test [1] stood at 4.71 µM; in test [2], 7.41 µM; in test [3], 4.52 µM; in test [4] it was 4.47 µM; in test [5] it was 3.83 µM; in test [6], 6.63 µM. Moreover, the IC50 in test [7] stood at 5.63 µM.
`COc1ccc(-c2cc3ccccc3nc2/C=C/C(=O)c2ccc[nH]2)cc1`: the IC50 in test [1], in test [2], in test [3], in test [4], in test [5] and in test [6] was > 10 µM in each case. Also, the IC50 in test [7] is > 10 µM.
As for `COc1ccc(-c2cc3ccccc3nc2/C=C/C(=O)c2ccsc2)cc1`, the IC50 in test [1] amounted to 1.22 µM; in test [2] it was 8.21 µM; in test [3], 6.01 µM; in test [4], 6.39 µM; in test [5], 0.66 µM; in test [6], 7.08 µM. The IC50 in test [7] came to 1.06 µM.
On to `COc1ccc(-c2cc3ccccc3nc2/C=C/C(=O)c2ccc(N)cc2)cc1`, for which the IC50 is 6.51 µM in test [1]; 7.53 µM in test [2]; 6.92 µM in test [3]; 9.29 µM in test [4]; 8.56 µM in test [5]; 7.4 µM in test [6]. In test [7], this compound yielded an IC50 of 7.51 µM.
On to `COc1ccc(-c2cc3ccccc3nc2/C=C/C(=O)c2ccc([N+](=O)[O-])cc2)cc1`, for which the IC50 in test [1] was 0.77 µM; in test [2], 6.31 µM; in test [3], 4.11 µM; in test [4] it was 6.1 µM; in test [5], 0.59 µM; in test [6], 6.47 µM. This compound also showed an IC50 in test [7] of 0.84 µM.
With `COc1ccc(-c2cc3ccccc3nc2/C=C/C(=O)c2cnc(N)nc2C)cc1`, the IC50 in test [1], in test [2], in test [3], in test [4], in test [5] and in test [6] was > 10 µM each time. Also, the IC50 in test [7] was > 10 µM.
Take `COc1ccc(-c2cc3ccccc3nc2/C=C/C(=O)c2sccc2N)cc1`: the IC50 in test [1], in test [2], in test [3], in test [4], in test [5] and in test [6] was > 10 µM each time. For the same compound, in test [7], the IC50 is > 10 µM.
As to `COc1ccc(-c2cc3ccccc3nc2/C=C/C(=O)c2ccc(OC)cc2OC)cc1`, the IC50 in test [1] is 3.77 µM; in test [2] it was 7.99 µM; in test [3], 6.26 µM; in test [4], 6.11 µM; in test [5], 2.26 µM; in test [6], 7.04 µM. This compound showed an IC50 in test [7] of 3.21 µM.
Turning to `COc1ccc(-c2cc3ccccc3nc2/C=C/C(=O)c2ccc(OC)c(OC)c2)cc1`, the IC50 stood at 1.05 µM in test [1]; 8.86 µM in test [2]; 6.03 µM in test [3]; 7.24 µM in test [4]; 3.26 µM in test [5]; 7.54 µM in test [6]. This compound came in with an IC50 in test [7] of 4.79 µM.
As for `COc1ccc(-c2cc3ccccc3nc2/C=C/C(=O)c2ccc(O)cc2)cc1`, the IC50 in test [1] was 8.97 µM; in test [2], 7.44 µM; in test [3] it was 6.71 µM; in test [4], 5.69 µM; in test [5], 3.88 µM; in test [6] it was 6.93 µM. In test [7], this compound displayed an IC50 of 6.35 µM.
